Patent US7635779B2, “Oxy substituted flavones as antihyperglycemic and antidyslipidemic agents” (Council of Scientific & Industrial Research, priority 2004, dated 2009)
Read-outs that look alike come from different tables or passages of the source. One block for each molecule: values may come before it.

What was measured:
sucrose loaded rat = experiment: Sucrose loaded rat model (SLM), antihyperglycemic activity; type: in vivo; details: for inhibition in vivo at 100 mg/kg: Rattus norvegicus, po, 2 h, read-out: % Fall in blood glucose levels, SLM; for % Fall in blood glucose levels, SLM: 100 mg/kg oral, AUC vs control
Experimental: Male albino rats of Charles Foster/Wistar strain of average body weight 160±20 g were selected for this study. The blood glucose level of each animal was checked by glucometer using glucostrips (Boehringer Mannheim) after 16 h starvation. Animals showing blood glucose levels between 3.33 to 4.44 mM (60 to 80 mg/dl) were divided into groups of five to six animals in each. Animals of experimental group were administered suspension of the desired synthetic compound orally (made in 1.0% gum acacia) at a dose of 100-mg/kg-body weight. Animals of control group were given an equal amount of 1.0% gum acacia. A sucrose load (10.0 g/kg) was given to each animal orally exactly after 30 min post administration of the test sample/vehicle. Blood glucose profile of each rat was again determined at 30, 60, 90 and 120 min post administration of sucrose by glucometer. Food but not water was withheld from the cages during the course of experimentation. Quantitative glucose tolerance of each animal was calculated by Area Under Curve (AUC) method (Prism Software). Comparing the AUC of experimental and control groups determined the percentage antihyperglycemic activity. Statistical comparison was made by Dunnett's test.

[1] = test system: triton WR-1339 induced hyperlipidemic rats; experiment: Triton model, antidyslipidemic activity; type: in vivo, rat; details: 100 mg/kg oral, plasma after 18 h; for inhibition in vivo at 100 mg/kg: Rattus norvegicus
Experimental: Male Charles foster rats weighing 200-225 g were divided into control, hyperlipidemic and hyperlipidemic plus drug treated groups containing six animals in each group. Hyperlipidemia was induced by administration of triton WR-1339 (200 mg/kg i.p.). All animals were maintained on a special pellet diet and water ad libitum. Compounds and standard drug were macerated with 0.2% aqueous gum acacia suspension. The suspension was fed orally at the dose of 100 mg/kg simultaneously with triton in drug treated group. The animals of control group received the same amount of gum acacia by similar route of administration. At the end of the experiment, after 18 h, blood was withdrawn from retro orbital plexus and plasma was used for the assay of total cholesterol, phospholipid and triglycerides.
Cholesterol was estimated using the kit provided by Roche Diagnostics. Cholesterol esters are enzymatically hydrolyzed by cholesterol esterase (CE) to cholesterol and free fatty acids. Free cholesterol, including that originally present, is then oxidized by cholesterol oxidase (CO) to cholest-4-en-3-one and hydrogen peroxide. The hydrogen peroxide combines with hydroxy benzoic acid (HBA) and 4-aminoantipyrine (4AAA) in the presence of peroxidase (POD) to form a chromophore (quinoneimine dye), which may be quantitated at 500-505 nm. The intensity of red colour formed is directly proportional to the concentration of total cholesterol in the specimen and measured spectrophotometrically (Searcy, C. L. Diagnostic Biochemistry, 1969, McGraw Hill, New York; Ellefson, R. D.; Caraway, W. T. Fundamentals of clinical chemistry, 1976, Ed Tietz N W, 506-515.)
Triglycerides were estimated using the kit provided by Roche Diagnostics. Lipoprotein lipase hydrolyses triglycerides to yield glycerol and fatty acids. Glycerol kinase converts glycerol to glycerol-3-phosphate, which is oxidized by glycerol phosphate oxidase to dihydroxy acetone phosphate and hydrogen peroxide. In the presence of peroxidase, hydrogen peroxide oxidatively couples with 4-aminoantipyrine and 4-chloro phenol to produce red quinonimine dye. The intensity of red colour formed is directly proportional to the concentration of triglycerides in the specimen and is measured by photometrically (Wahlefeld, A. W.; Bergmeyer, H. U. Ed. Methods of enzymatic analysis, 2nd English edition, New York, N.Y., Academic press inc, 1831-1840.).
Serum (0.2 mL) and perchloric acid (1.0 mL) was digested at 180° C. for 1-1.5 h till the solution became colorless. The liberated inorganic phosphate (Pi) was measured by the method of Fiske and Subbarow (Fiske, C. H.; Subbarow, V. J. Biol. Chem. 1925, 66, 375.). 1 mL of 2.5% ammonium molybdate (prepared in 5 N sulphuric acid) and 0.5 mL reducing agent (4-amino naphthol sulphonic acid, 0.2%), sodium metabisulphite (2.4% w/v in distilled water) was added to the above tubes and mixed well. The reaction mixture was […] with 2.5 mL of triple distilled water and kept at 60° C. in water bath for 20 min. For standard, an appropriate amount of potassium dihydrogen phosphate dissolved in triple distilled water containing 2-10 μg phosphorous (Pi) was run simultaneously with the experiment tubes. The optical density of the blue colour was recorded at 620 nm against reagent blank. The values of Pi were converted into phospholipid by multiplying with 25 (a constant calibrated from Pi value of lecithin).

[2] = test system: streptozotocin-induced diabetic rats; experiment: Sucrose-challenged streptozotocin-induced diabetic rats (STZ-S); type: in vivo, rat; details: 100 mg/kg oral
Experimental: Male albino rats of Sprague Dawley strain of body weight 160+20 g were selected for this study. Streptozotocin (Sigma, USA) was dissolved in 100 mM citrate buffer pH 4.5 and calculated amount of the fresh solution was injected to overnight fasted rats (45 mg/kg) intraperitoneally. Blood glucose level was checked 48 h later by glucostrips and animals showing blood glucose values between 144 to 270 mg/dl (8 to 15 mM) were included in the experiment and termed diabetic. The diabetic animals were divided into groups consisting of five to six animals in each group. Animals of experimental groups were administered suspension of the desired test samples orally (made in 1.0% gum acacia) at a dose of 100-mg/kg-body weight. Animals of control group were given an equal amount of 1.0% gum acacia. A sucrose load of 2.5-g/kg body weight was given after 30 minutes of compound administration. After 30 minutes of post sucrose load blood glucose level was again checked by glucostrips at 30, 60, 90, 120, 180, 240, 300 min and at 24 h, respectively. Animals not found diabetic after 24 hours post treatment of the test sample were not considered and omitted from the calculations and termed as non-responders. […] Food but not water was withheld from the cages during the experimentation. Comparing the AUC of experimental and control groups determined the percent antihyperglycemic activity. Statistical comparison between groups was made by Student's ‘t’ test.
As depicted in the FIGURE, a dose response curve of 34 was obtained by administering different doses of test compound to streptozotocin-induced diabetic rats (Table 6). […]

[3] = phospholipid, read-out: % Fall in lipid levels (Triton model) PL
[4] = total cholesterol, read-out: % Fall in lipid levels (Triton model) TC
[5] = triglycerides, read-out: % Fall in lipid levels (Triton model) TG

- melting point: 155 to 156 °C
Compound: COc1cc(OC)cc(-c2cc(=O)c3ccc(OCC(O)CNC(C)C)cc3o2)c1 (centres unmarked) [Compound 44, 3′,5′-Dimethoxy-7-[2-hydroxy-3-iso-propylamino-propoxy]-flavone]
- inhibition in vivo at 100 mg/kg (sucrose loaded rat): 1.36%
- inhibition in vivo at 100 mg/kg [1, 3]: 21%
- inhibition in vivo at 100 mg/kg [1, 4]: 17%
- inhibition in vivo at 100 mg/kg [1, 5]: 24%

Compound: O=C1NC(=O)C(=Cc2ccc(OCCOc3ccc4c(=O)cc(-c5cc(OCc6ccccc6)cc(OCc6ccccc6)c5)oc4c3)cc2)S1 [Compound 62, 3′,5′-Dibenzyloxy-7-{2-[4-(thiazolidin-2,4-dione-5-ylidinemethyl)-phenoxy]-ethoxy}-flavone]
- % Fall in blood glucose levels, SLM (sucrose loaded rat): NIL
- % Fall in lipid levels (Triton model) PL ([1]; phospholipid): 15%
- % Fall in lipid levels (Triton model) TC ([1]; total cholesterol): 15%
- % Fall in lipid levels (Triton model) TG ([1]; triglycerides): 18%

- melting point: 170 to 171 °C
Compound: COc1cc(-c2cc(=O)c3ccc(OCC(O)CN4CCN(c5ccccc5)CC4)cc3o2)cc(OC)c1OC (centres unmarked) [Compound 42, 7-[2-Hydroxy-3-(4-phenylpiperazin-1-yl)-propoxy]-3′,4′,5′-trimethoxy-flavone]
- inhibition in vivo at 100 mg/kg (sucrose loaded rat): 5.64%
- inhibition in vivo at 100 mg/kg [1, 3]: 8%
- inhibition in vivo at 100 mg/kg [1, 4]: 19%
- inhibition in vivo at 100 mg/kg [1, 5]: 23%

- melting point: 191 to 193 °C
Compound: COc1ccc(-c2cc(=O)c3ccc(OCC(O)CN4CCN(c5ccccc5)CC4)cc3o2)cc1OC (centres unmarked) [Compound 47, 3′,4′-Dimethoxy-7-[2-hydroxy-3-(4-phenylpiperazin-1-yl)-propoxy]-flavone]
- inhibition in vivo at 100 mg/kg (sucrose loaded rat): 5.45%
- inhibition in vivo at 100 mg/kg [1, 3]: 22%
- inhibition in vivo at 100 mg/kg [1, 4]: 23%
- inhibition in vivo at 100 mg/kg [1, 5]: 19%

- melting point: 145 to 146 °C
Compound: COc1cc(OC)cc(-c2cc(=O)c3ccc(OCC(O)CNC(C)(C)C)cc3o2)c1 (centres unmarked) [Compound 43, 7-[3-tert-Butylamino-2-hydroxy-propoxy]-3′,5′-dimethoxy flavone]
- % Fall in blood glucose levels, SLM (sucrose loaded rat): NIL
- inhibition in vivo at 100 mg/kg [1, 3]: 19%
- inhibition in vivo at 100 mg/kg [1, 4]: 21%
- inhibition in vivo at 100 mg/kg [1, 5]: 17%

Compound: CC(C)(C)NCC(O)COc1ccc2oc(-c3ccc(O)c(O)c3)cc(=O)c2c1 (centres unmarked) [Compound 52, 6-(3-tert-Butylamino-2-hydroxy-propoxy)-3′,4′-dihydroxy-flavone]
- inhibition in vivo at 100 mg/kg (sucrose loaded rat): 4.96%
- inhibition in vivo at 100 mg/kg [1, 3]: 23%
- inhibition in vivo at 100 mg/kg [1, 4]: 24%
- inhibition in vivo at 100 mg/kg [1, 5]: 25%

- melting point: 173 to 174 °C
Compound: CC(C)NCC(O)COc1ccc2c(=O)cc(-c3cc(OCc4ccccc4)cc(OCc4ccccc4)c3)oc2c1 (centres unmarked) [Compound 35, 3′,5′-Dibenzyloxy-7-(2-hydroxy-3-iso-propylamino-propoxy)-flavone]
- % Fall in blood glucose levels, SLM (sucrose loaded rat): NIL
- inhibition in vivo at 100 mg/kg [1, 3]: 8%
- inhibition in vivo at 100 mg/kg [1, 4]: 13%
- inhibition in vivo at 100 mg/kg [1, 5]: 11%

- melting point: 195 to 196 °C
Compound: COc1cc(OC)cc(-c2cc(=O)c3ccc(OCC(O)CN4CCN(c5ccccc5)CC4)cc3o2)c1 (centres unmarked) [Compound 45, 3′,5′-Dimethoxy-7-[2-hydroxy-3-(4-phenylpiperazin-1-yl)-propoxy]-flavone]
- % Fall in blood glucose levels, SLM (sucrose loaded rat): NIL
- inhibition in vivo at 100 mg/kg [1, 3]: 20%
- inhibition in vivo at 100 mg/kg [1, 4]: 30%
- inhibition in vivo at 100 mg/kg [1, 5]: 31%

Compound: O=C1NC(=O)C(=Cc2ccc(OCCOc3ccc4c(=O)cc(-c5ccc(OCc6ccccc6)c(OCc6ccccc6)c5)oc4c3)cc2)S1 [Compound 63, 3′,4′-Dibenzyloxy-7-{2-[4-(thiazolidin-2,4-dione-5-ylidinemethyl)-phenoxy]-ethoxy}-flavone]
- % Fall in blood glucose levels, SLM (sucrose loaded rat): 26.0%

Compound: CC(C)NCC(O)COc1ccc2c(=O)cc(-c3ccc(O)c(O)c3)oc2c1 (centres unmarked) [Compound 51, 3′,4′-Dihydroxy-7-(2-hydroxy-3-iso-propylamino-propoxy)-flavone]
- % Fall in blood glucose levels, SLM (sucrose loaded rat): NIL
- inhibition in vivo at 100 mg/kg [1, 3]: 13%
- inhibition in vivo at 100 mg/kg [1, 4]: 15%
- inhibition in vivo at 100 mg/kg [1, 5]: 19%

Compound: COc1cc(-c2cc(=O)c3ccc(OCCOc4ccc(C=C5SC(=O)NC5=O)cc4)cc3o2)cc(OC)c1OC [Compound 64, 7-{2-[4-(thiazolidin-2,4-dione-5-ylidinemethyl)-phenoxy]-ethoxy}-3′,4′,5′-trimethoxy-flavone]
- % Fall in blood glucose levels, SLM (sucrose loaded rat): 9.59%
- % Fall in lipid levels (Triton model) PL ([1]; phospholipid): 25%
- % Fall in lipid levels (Triton model) TC ([1]; total cholesterol): 20%
- % Fall in lipid levels (Triton model) TG ([1]; triglycerides): 26%

- melting point: 144 to 145 °C
Compound: COc1ccc(-c2cc(=O)c3ccc(OCC(O)CNC(C)C)cc3o2)cc1OC (centres unmarked) [Compound 46, 3′,4′-Dimethoxy-7-[2-hydroxy-3-iso-propylamino-propoxy]-flavone]
- inhibition in vivo at 100 mg/kg (sucrose loaded rat): 23.9%

Compound: COc1cc(OC)cc(-c2cc(=O)c3ccc(OCCCOc4ccc(C=C5SC(=O)NC5=O)cc4)cc3o2)c1 [Compound 66, 3′,5′-Dimethoxy-7-{3-[4-(thiazolidin-2,4-dione-5-ylidinemethyl)-phenoxy]-propoxy}-flavone]
- % Fall in blood glucose levels, SLM (sucrose loaded rat): 28.80%
- % Fall in blood glucose levels, STZ-S 5 h [2]: 18.9%
- % Fall in blood glucose levels, STZ-S 24 h [2]: 20.2%

Compound: COc1ccc(-c2cc(=O)c3ccc(OCCCOc4ccc(C=C5SC(=O)NC5=O)cc4)cc3o2)cc1OC [Compound 67, 3′,4′-Dimethoxy-7-{3-[4-(thiazolidin-2,4-dione-5-ylidinemethyl)-phenoxy]-propoxy}-flavone]
- % Fall in blood glucose levels, SLM (sucrose loaded rat): 13.60%
- % Fall in blood glucose levels, STZ-S 5 h [2]: 18.7%
- % Fall in blood glucose levels, STZ-S 24 h [2]: 13.6%
- % Fall in lipid levels (Triton model) PL ([1]; phospholipid): 14%
- % Fall in lipid levels (Triton model) TC ([1]; total cholesterol): 28%
- % Fall in lipid levels (Triton model) TG ([1]; triglycerides): 21%

Compound: CC(C)(C)NCC(O)COc1ccc2c(=O)cc(-c3ccc(O)c(O)c3)oc2c1 (centres unmarked) [Compound 50, 7-(3-tert-Butylamino-2-hydroxy-propoxy)-3′,4′-dihydroxy-flavone]
- % Fall in blood glucose levels, SLM (sucrose loaded rat): NIL
- inhibition in vivo at 100 mg/kg [1, 3]: 23%
- inhibition in vivo at 100 mg/kg [1, 4]: 21%
- inhibition in vivo at 100 mg/kg [1, 5]: 25%
